Experimental data published in PubChem BioAssay (NCI).
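Assay format: 96-well plates, 48-hour exposure. TGI is the concentration that stops growth completely.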

Experiments:
Assay in all cases: NCI tumour cell line growth inhibition, 48 h
SN12C renal = system: SN12C renal
786-0 renal = system: 786-0 renal
IGROV1 ovarian = system: IGROV1 ovarian
KM20L2 colon = system: KM20L2 colon
SF-539 CNS = system: SF-539 CNS
TK-10 renal = system: TK-10 renal
MALME-3M melanoma = system: MALME-3M melanoma
OVCAR-8 ovarian = system: OVCAR-8 ovarian
OVCAR-4 ovarian = system: OVCAR-4 ovarian
CAKI-1 renal = system: CAKI-1 renal
RPMI-8226 leukemia = system: RPMI-8226 leukemia
SK-MEL-5 melanoma = system: SK-MEL-5 melanoma
RXF 393 renal = system: RXF 393 renal
MOLT-4 leukemia = system: MOLT-4 leukemia
M14 melanoma = system: M14 melanoma
HCT-15 colon = system: HCT-15 colon
NCI-H460 lung = system: NCI-H460 lung
SNB-78 CNS = system: SNB-78 CNS
LXFL 529 NSCLC = system: LXFL 529 NSCLC
M19-MEL melanoma = system: M19-MEL melanoma
HT29 colon = system: HT29 colon
A498 renal = system: A498 renal
SK-MEL-2 melanoma = system: SK-MEL-2 melanoma
COLO 205 colon = system: COLO 205 colon
HOP-18 NSCLC = system: HOP-18 NSCLC
SW-620 colon = system: SW-620 colon
CCRF-CEM leukemia = system: CCRF-CEM leukemia
NCI-H522 lung = system: NCI-H522 lung
NCI-H226 lung = system: NCI-H226 lung
OVCAR-3 ovarian = system: OVCAR-3 ovarian
RXF-631 renal = system: RXF-631 renal
U251 CNS = system: U251 CNS
SF-268 CNS = system: SF-268 CNS
UACC-62 melanoma = system: UACC-62 melanoma
SNB-75 CNS = system: SNB-75 CNS
A549 NSCLC = system: A549 NSCLC
EKVX NSCLC = system: EKVX NSCLC
HCT-116 colon = system: HCT-116 colon
DMS 114 small cell lung = system: DMS 114 small cell lung
OVCAR-5 ovarian = system: OVCAR-5 ovarian
HOP-92 NSCLC = system: HOP-92 NSCLC
UACC-257 melanoma = system: UACC-257 melanoma
SK-OV-3 ovarian = system: SK-OV-3 ovarian
K-562 leukemia = system: K-562 leukemia
ACHN renal = system: ACHN renal
SNB-19 CNS = system: SNB-19 CNS
NCI-H23 lung = system: NCI-H23 lung
LOX IMVI melanoma = system: LOX IMVI melanoma
DLD-1 colon = system: DLD-1 colon
UO-31 renal = system: UO-31 renal
XF 498 CNS = system: XF 498 CNS
KM12 colon = system: KM12 colon
DMS 273 small cell lung = system: DMS 273 small cell lung
HL-60(TB) leukemia = system: HL-60(TB) leukemia
SF-295 CNS = system: SF-295 CNS
HCC-2998 colon = system: HCC-2998 colon
HOP-62 NSCLC = system: HOP-62 NSCLC
SK-MEL-28 melanoma = system: SK-MEL-28 melanoma

Measured: TGI

CC(C)c1ccc(/C=C(\NC(=O)c2ccccc2)c2nc3ccccc3[nH]2)cc1
69.9 µM: MOLT-4 leukemia
89.3 µM: SK-MEL-2 melanoma
45.2 µM: RPMI-8226 leukemia
82.5 µM: A549 NSCLC
48.7 µM: SK-MEL-5 melanoma
75.3 µM: NCI-H23 lung
90 µM: EKVX NSCLC
89.5 µM: NCI-H522 lung
92.8 µM: DMS 114 small cell lung
86.9 µM: OVCAR-8 ovarian
not listed: HL-60(TB) leukemia | SF-295 CNS | HCC-2998 colon | HOP-62 NSCLC | SK-MEL-28 melanoma
> 100 µM: all other assays above

O=C(O)c1cc(Cl)cc(NC(=O)C(Cl)Cl)c1Cl
not listed: OVCAR-5 ovarian | HOP-92 NSCLC
> 100 µM: all other assays above
